# Measured values from patent US11903386B2, “Strigolactone analogs and their usage in plant control” (King Abdullah University of Science and Technology, priority 2016, dated 2024).
# How the values were obtained:
# [1] = tested on: parasite seed; conditions: in vivo; cited from earlier work
# [2] = tested on: rice d10 mutant; experiment: Rice micro tillering bioassay, d10 mutant; assay type: in vivo; conditions: 2.5 μM, hydroponic culture; untreated (Mock) 4 tillers per plant
# Protocol: (§1) Rice seeds (WT, d3, d10) were surface-sterilized by washing with 70% ethanol for 1 min and then with 2.5% sodium hypochlorite for 15 min. Seeds were then rinsed thoroughly with sterile MilliQ water and incubated in water for 2 days at 30° C. in the dark. Pre-germinated seeds were transferred to filter papers containing ½ strength MS medium in 90 mm petri dishes and incubated at 30° C. under fluorescent white light (130-180 μM m^−2 s^−1) for one week. Seven day-old seedlings were transferred to 50 ml falcon tubes (one seedling per tube) containing modified half-strength Hoagland nutrient solution and grown in greenhouse. Plants were treated with MPs at 2.5 μM-2.5×10-7 μM, using GR24 as positive control. The compounds were applied six times, twice a week. Number of tillers per plant, plant height and fresh biomass were measured at final harvest.
# Statistical analyses were carried out using statistical software package R (version 3.2.2). Dose-response curves and Half Maximum Effective Concentrations (EC50) were calculated to determine optimum amount of MPs. Synthetic strigolactone analog GR24 was used as reference to estimate efficacy of selected compounds. EC50 and estimated response were calculated using drc package (https://cran.r390 project.org/web/packages/drc/) with a Four Parameter Logistic Curve (Dose Response Curve) (Ritz and Streibig, 2005).
# [3] = biological target: T1, OsD14 (Oryza sativa subsp. japonica, UniProt Q10QA5); experiment: YLG (Yoshimulactone Green) competitive hydrolysis assay; assay type: biochemical, rice; conditions: with SE (n=3); read-out: IC50, competitive inhibition of OsD14 mediated YLG hydrolysis
# T1 construct: made in house; host or cells: E. coli BL21 (DE3)
# T1 sequence (Q10QA5 1-318): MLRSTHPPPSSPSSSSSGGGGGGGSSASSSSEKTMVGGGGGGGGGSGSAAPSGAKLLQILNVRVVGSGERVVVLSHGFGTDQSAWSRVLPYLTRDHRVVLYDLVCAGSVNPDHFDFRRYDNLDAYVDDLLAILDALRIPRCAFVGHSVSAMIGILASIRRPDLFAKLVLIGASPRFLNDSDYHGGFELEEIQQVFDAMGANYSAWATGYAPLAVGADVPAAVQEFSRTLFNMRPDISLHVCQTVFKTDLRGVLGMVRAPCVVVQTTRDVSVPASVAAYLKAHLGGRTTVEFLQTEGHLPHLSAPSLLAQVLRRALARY
# Text: (§2) Striga hermonthica ShHTL7 cDNA, GenBank accession KR013127 was kindly provided by Prof. Tadao Asami (The University of Tokyo, Japan). Arabidopsis thaliana D14 (AtD14) cDNA, GenBank accession AY097402 was synthesized and cloned into pUC57 (GenScript). ShHTL7 and OsD14 cDNAs were amplified by RT-PCR using the primers shown in Table 2, digested with BamHI and XhoI, and ligated into BamHI/XhoI digested pGEX-6P-1 expression vector (GE Healthcare). Integrity of plasmids was confirmed by sequencing (KAUST Bioscience Core Lab). The plasmids were then transformed into E. coli BL21 (DE3) cells. The cells were grown in LB broth containing ampicillin ([…]), incubated at 37° C. until OD600 of 0.6 and induced with 0.1 mM isopropyl-β-D-thiogalactopyranoside (IPTG) at 16° C. for 16 h. Harvested cells were re-suspended in lysis buffer: 50 mM Tris-HCl (pH 8.0), 200 mM NaCl, 0.5% Tween-20 and 2 mM dithiothreitol (DTT). After sonication on ice for 10 mins, the lysate was centrifuged at 25,000 rpm for 30 min at 4° C. Supernatant was allowed to bind to glutathione-sepharose beads (GE Healthcare) for 2 h at 4° C., washed 3 times with buffer (50 mM Tris-HCl (pH 8.0), 200 mM NaCl, 2 mM DTT), and eluted by cleaving GST moiety with PreScission™ Protease (GE Healthcare) at 4° C. overnight. Eluted protein was further purified by gel filtration using HiLoad 16/60 Superdex200 prep grade column (GE Healthcare) on an AKTA prime system (GE Healthcare) in gel filtration buffer (10 mM HEPES pH 7.5, 50 mM KCl and 2 mM DTT). Protein eluted as a sharp single peak and purity was judged by 4-15% SDS-PAGE (Bio-Rad). Purified protein was concentrated using an Amicon 10K filter unit (Merck Millipore) and stored at −80° C. until use. Similar expression and purification protocol was followed for OsD14 protein, except that OsD14 was eluted from Glutathione resins using 0.2 mM reduced Glutathione (Sigma) without cutting GST tag.
# In vitro YLG hydrolysis assays were performed as described by Tsuchiya et al., 2015. Hydrolysis assays were carried out using 0.15 μM of recombinant protein OsD14 in a reaction buffer (100 mM PBS buffer, pH 7.3) with 0.1% dimethylsulfoxide (DMSO) at a 300 μl volume on a 96-well black plate (Thermo). For competitive assays, (±) GR24 and (±) MPs at range between 0.03 to 10 μM (or 100 μM) were co-incubated with 0.3 μM of YLG and reacted at 30° C. incubator for 15 min. Fluorescent intensity was measured with excitation at 485 nm and detected at 535 nm. IC50 values were calculated online (http://www.ic50.tk/index.html). Later, values were converted to the existing conditions when treated by 1.0 μM of recombinant proteins.
# [4] = tested on: rice d3 mutant; experiment: Rice micro tillering bioassay, SL insensitive d3 mutant; assay type: in vivo; conditions: 2.5 μM, hydroponic culture
# Protocol: as §1
# [5] = biological target: T2, ShHTL7 (Striga hermonthica, UniProt A0A0M3PNA2); experiment: Intrinsic tryptophan fluorescence assay; assay type: binding; conditions: ShHTL7 10 μM, mean±SE (n=3); read-out: Kd, affinity of ShHTL7
# T2 sequence (A0A0M3PNA2 1-271): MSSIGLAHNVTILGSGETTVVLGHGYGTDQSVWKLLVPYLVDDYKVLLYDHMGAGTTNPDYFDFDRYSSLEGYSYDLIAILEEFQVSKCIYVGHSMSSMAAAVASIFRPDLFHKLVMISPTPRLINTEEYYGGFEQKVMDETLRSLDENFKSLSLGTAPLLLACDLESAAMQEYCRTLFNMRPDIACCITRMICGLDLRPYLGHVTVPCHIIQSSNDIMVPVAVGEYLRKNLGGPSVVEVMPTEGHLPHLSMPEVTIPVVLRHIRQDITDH
# Text: as §2
# ShHTL7 tryptophans were excited at 280 nm and […] emission intensity was measured at 333 nm. ShHTL7 (10 μM) was incubated at various dilutions (0.2, 0.4, 0.8, 1.6, 3.12, 6.25, 12.5, 25 and 50 μM) of GR24 and MPs for 30 minutes at room temperature before measurement. Each concentration point was measured in triplicates. Emitted fluorescence was monitored using spectraMaxi3 (Molecular Devices) plate reader in 96-wells black plates. Changes in tryptophan fluorescence intensity occur due to conformational changes in protein when it is bound to ligand; differences in fluorescence intensity were recorded and analyzed. Data were normalized and dissociation coefficient (Kd) values were calculated by fitting to a binding saturation single-site model with GraphPad (PRISM 6).
# [6] = tested on: rice leaf segments; experiment: Dark-induced leaf senescence of rice leaf segments; assay type: in vivo, O. sativa, var. Shiokari
# Protocol: One week old rice (O. sativa, var. Shiokari) seedlings were established as mentioned above. Uniform seedlings were transferred to 50 ml tubes containing half strength Hoaglands nutrient solution for 7 days and grown in an incubator under white fluorescent light (130-180 μM m^−2 s^−1) with 16 h:8 h (L/D) at 28° C. for one week. Leaf segments of 2 cm were cut from middle part of third leaves of rice plants. Each segment was put in a well (in 24-well plates) containing 2 ml of 2.5 mM MES buffer with 0.05% Tween-20, and incubated at 30° C. in the dark for 7 days. After application of MPs, color change, chlorophyll content, ion leakage and gene expression were monitored daily for 7 days.
# [7] = biological target: T2, ShHTL7; experiment: In vitro hydrolysis assay with ShHTL7 (HPLC); assay type: biochemical; conditions: 10 μM substrate, 37° C.
# [8] = tested on: P. ramosa; conditions: in vivo; cited from earlier work
# [9] = tested on: S. hermonthica; conditions: in vivo; cited from earlier work
# [10] = tested on: Orobanche ramosa; conditions: tobacco field; cited from earlier work
compound,measurement,setting,value
CC1=CC(Oc2ccc(Br)cc2)OC1=O (stereo not shown) [4-Br debranone],Activity in inducing parasite seed germination,[1],moderate activity in inducing seed germination
"CC1=C[C@H](O/C=C2/C(=O)O[C@@H]3c4ccccc4C[C@H]23)OC1=O [GR24, reference compound]","Number of tillers per plant, d10 mutant",[2],1 tiller per plant
same,IC50,[3],5.68 ± 0.183 µM
same,High-tillering phenotype of d3 mutant (tillers per plant),[4],neither MPs nor GR24 could restore the high-tillering phenotype
same,Kd,[5],0.44 ± 0.21 µM
same,Transcript levels of Senescence Associated Genes Osl20 and Osl295,[6]; after 5 days of treatment,striking increase in their transcripts
same,"Change in leaf color, time relative to control","[6]; dark, leaf segments",about two days earlier than the control
same,"Change in leaf color, day observed","[6]; dark, leaf segments monitored 7 days",already on the third day after treatment
same,Ion leakage compared to the control,[6]; first five days,did not detect a difference
same,Ion leakage compared to the control,[6]; sixth and seventh day,striking increase
same,Chlorophyll content,[6]; third day,clear reduction
same,Hydrolysis rate by ShHTL7,[7],"followed by MP7, GR24"
COC(=O)/C(=C/O[C@H]1C=C(C)C(=O)O1)N1C(=O)c2ccccc2C1=O [Nijmegen-1],Induction of seed germination in P. ramosa,[8],potent inducer
same,Activity in S. hermonthica seed germination,[9],weak germination response
same,"EC50 relative to GR24, orders of magnitude higher",[9],3 orders of magnitude
same,Result of suicidal germination field trial,[10],very promising results
